Type in all cases: physicochemical
A short description of series [1]: Cyclisation to the 6-oxomorpholine ring-closed form in DMSO-d6/TFA, monitored by 1H NMR. The conditions noted are these: 30% aqueous disodium salt in DMSO-d6/TFA 80:20 w/w, ambient temperature. The protocol: A 30% aqueous solution of disodium threonine diacetate (129 mg) was mixed well with a DMSO-d6/TFA solution (2761 mg, 80:20 w/w) and changes in the obtained mixture were monitored by ^1H NMR at ambient temperature. The steady state was reached after 40 minutes with a conversion of 90% of THDA to cyclic-THDA.
A 30% aqueous solution of disodium serine diacetate (136 mg) was mixed well with a DMSO-d6/TFA solution (2911 mg, 80:20 w/w) and changes in the obtained mixture were monitored by ^1H NMR at ambient temperature. The steady state was reached after 100 minutes with a conversion of 43% of SerDA to cyclic-SerDA. The above experiments support that THDA can be used in applications that relate to dissolving carbonate or sequestering iron, such as use in the oil field (e.g. dissolving CaCO3 and controlling iron in subterranean treatment), use in a feed, food or micronutrient composition (e.g. complexing iron and calcium for delivery to growing substrates), use in detergents and water treatments (e.g. sequestering calcium from water to soften water and sequestering iron present in stains), and many more uses.

Series [2] is described as follows: Potentiometric titration with FeCl3, iron total sequestering value (Fe-TSV). The text has this:
Potentiometric titration of THDA with FeCl3 at pH 3-4 and 11.5 gave the iron total sequestering values (Fe-TSV) of 37.8 and 27.8%, respectively. […] All Fe(III) is bound by THDA at pH 3-4.

A short description of series [3]: Dissolving insoluble calcium salts (CaCO3 stirred with THDA.Na3 solution, calcium in filtrate by ICP). Here is the method:
A mixture of CaCO3 (1.26 g, […]), 37.8 wt % THDA.Na3 in water (15 g, 18.8 mM), and water (45 g) was vigorously stirred for 6 h. The experiment was performed at room temperature and at 50° C. Samples (1 ml) were taken from the mixture every 0.5 h and filtered through a 0.45 μm filter. The concentration of calcium in the filtered samples was determined using the ICP method.

The values that follow come from patent US9416095B2, “Salts, crystals, complexes, and derivatives of threonine diacetic acid, a process to prepare threonine diacetic acid, and the use thereof” (Akzo Nobel Chemicals International B.V., priority 2013, dated 2016).

Turning to `O=C(O)CN(CC(=O)O)[C@@H](CO)C(=O)O` [SerDA, serine-N,N-diacetic acid, reference compound], in series [1], the “conversion to cyclic form at steady state” value is reported as 43% and the “time to reach steady state of cyclisation” value worked out at 100 min.
In the case of `C[C@@H](O)[C@@H](C(=O)O)N(CC(=O)O)CC(=O)O` [THDA, threonine-N,N-diacetic acid], the “iron total sequestering value (Fe-TSV)” value in series [2] (pH 3-4) was determined as 37.8%. The “iron total sequestering value (Fe-TSV)” value in series [2] (pH 11.5) is recorded as 27.8%. In addition, in series [1], the “conversion to cyclic form at steady state” value turned out to be 90% and the “time to reach steady state of cyclisation” value amounted to 40 min.
As for `C[C@@H](O)[C@@H](C(=O)O)N(CC(=O)O)CC(=O)O.[Na+].[Na+].[Na+]` [THDA.Na3, Trisodium Threonine Diacetate], in series [3] (50° C.), the “speed of CaCO3 dissolution at 50° C. versus room temperature” value was “noticeably faster”. Besides, the “dissolution of CaCO3” value in series [3] (CaCO3 12.6 mM, THDA.Na3 18.8 mM in water, stirred 6 h, room temperature and 50° C.) is given as “significant amount”.
